These results are taken from patent publication US6174875A, “Benzoquinoid ansamycins for the treatment of cardiac arrest and stroke” (priority 1999, dated 2001).

A short description of one data set: in vivo. As to conditions: mouse, iv, 60 mg/kg. As to the method:
17-allylaminogeldanamycin (17-AAG) (60 mg/kg) was administered to CD2F1 mice by intravenous (iv) injection. Brain levels of 17-AAG were determined at various time points after administration.

For the next data set, the system named is cultured neurons. The conditions noted are these: cited from earlier work.
Data set [1] relates to heat shock proteins in myogenic H9c2 cells. The conditions noted are these: cited from earlier work.
The subject of data set [2] is heat shock proteins in rat cardiomyocytes. As to conditions: cited from earlier work.
Another data set relates to hsp70 in fibroblasts. The conditions noted are these: cited from earlier work.
Data set [3] relates to myogenic H9c2 cells and cardiomyocytes. The conditions noted are these: pretreatment; cited from earlier work.
A further data set relates to HT22 cells. Kind of data set: MTT viability assay of glutamate-treated HT22 cells. Type of data set: cell-based, mouse. The conditions noted are these: 0.5 μg/ml herbimycin A (FIG. 2). Here is the method:
HT22 cells were seeded on 60 mm tissue culture dishes at 300,000 cells per dish and grown overnight. Cells were then incubated in the presence of 5 mM glutamate for 20 hours. […] In order to provide a more accurate assessment of glutamate-induced oxidative toxicity, the ability of HT22 cells to metabolize 3-(4,5-[…]-2-yl)-2,5-diphenyl tetrazolium bromide (MTT) was assayed. The reduction of this dye by viable cells can easily be detected spectrophotometrically as described by Mosman (1983) J. Immunol. Methods 65:55 with reduced HT22 cell viability directly correlated with decreased metabolism of MTT (Shubert et al. (1992) Proc. Natl. Acad. Sci. USA 89:8264). HT22 cells were seeded on 96-well plates at 5,000 cells per well and grown for 12 hours. Cells were then treated with 2 mM, 5 mM or 10 mM concentrations of glutamate. […] After a total incubation period of 20 hours, cell viability was measured using an MTT assay as described by Li et al. (1997) Neuron 19:453. Briefly, 10 μl of MTT solution (5 mg/ml) was added to each well and cells incubated for an additional 4 hours. 100 μl of solubilization solution (50% dimethylformamide and 20% SDS, pH 4.8) was added and left on the cells 5 overnight, after which light absorption at 570 nm was measured. Values (% Viability) represent the average of quadruplicate (FIG. 1) or triplicate (FIG. 2) determinations±S.D. Similar results were obtained in a replicate experiment. Cell viability was expressed relative to control cells treated with GA or Herb alone.

On to `C=CCNC1=C2CC(C)CC(OC)C(O)C(C)C=C(C)C(OC(N)=O)C(OC)C=CC=C(C)C(=O)NC(=CC1=O)C2=O` (stereo not shown) [17-AAG, 17-allylaminogeldanamycin], for which, in the data set “in vivo”, the concentration at 24 h stood at 100 ng/g.
For the molecule `CC(=O)Oc1ccccc1C(=O)O` [aspirin], the “protection of cultured neurons from oxidative toxicity” value with cultured neurons is “protect cultured neurons from this form of toxicity”.
Take `COC1C=CC=C(C)C(=O)NC2=CC(=O)C=C(C2=O)C(OC)C(C)CC(OC)C(OC)C(C)C=C(C)C1OC(N)=O` (stereo not shown) [herbimycin A]: in data set [1], the “induction of hsp70 expression in a myogenic cell line” value is recorded as “induce hsp70 expression”. In addition, the “overexpression of heat shock proteins in myogenic H9c2 cells” value in data set [1] (pretreatment) is recorded as “overexpression of heat shock proteins”. For the same molecule, the “induction of hsp70 expression in rat cardiomyocytes” value in data set [2] is given as “induce hsp70 expression”. Besides, the “overexpression of heat shock proteins in cardiomyocytes” value in data set [2] (pretreatment) is “overexpression of heat shock proteins”. For the same molecule, in the data set on hsp70 in fibroblasts, the “induction of hsp70 expression in fibroblasts” value is on record as “induce hsp70 expression”. The “protection against simulated ischemia” value in data set [3] is given as “conferred protection against simulated ischemia”. Also, the “protection from glutamate-induced oxidative toxicity (MTT viability)” value in the data set on HT22 cells is recorded as “protected HT22 cells from the glutamate-induced oxidative toxicity”.
As to vitamin E, the “protection of cultured neurons from oxidative toxicity” value in the data set with cultured neurons was “protect cultured neurons from this form of toxicity”.
